The target of data set [1] is T1, MGL (monoacyl glycerol lipase) enzyme (Mus musculus, UniProt O35678).
T1 construct: the source of MGL enzyme is a homogenate of mouse brain from which the cerebellum and the medulla oblongata have been removed; from tissue; host or cells: mouse brain homogenate (cerebellum and medulla oblongata removed)
T1 sequence (O35678 1-303): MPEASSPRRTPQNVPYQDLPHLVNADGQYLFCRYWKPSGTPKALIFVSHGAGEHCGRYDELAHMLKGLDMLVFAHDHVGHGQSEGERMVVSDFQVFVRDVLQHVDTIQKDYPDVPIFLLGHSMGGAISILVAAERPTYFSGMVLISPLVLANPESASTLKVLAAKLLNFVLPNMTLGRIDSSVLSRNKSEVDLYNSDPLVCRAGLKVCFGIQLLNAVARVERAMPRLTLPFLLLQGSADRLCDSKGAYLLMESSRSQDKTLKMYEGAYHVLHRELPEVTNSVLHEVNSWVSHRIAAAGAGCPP
Nature of the data set: radioenzymatic assay of MGL inhibition (hydrolysis of [3H] 2-OG by mouse brain homogenate). The data set is classed as biochemical. The note with it: 50 μM 2-OG with [3H] 2-OG, 20 minutes preincubation, 20 minutes incubation at ambient temperature, read-out: IC50 (concentration which inhibits 50% of the control enzymatic activity of MGL). As for the experimental part:
The inhibitory activity with respect to MGL is given by the concentration which inhibits 50% of the activity of MGL.
The inhibitory activity was measured in a radioenzymatic assay based on measuring the product of hydrolysis of 2-oleoyl glycerol ([^3H] 2-OG) by MGL. The products of hydrolysis of [^3H] 2-OG, labeled on the glycerol, are oleic acid and [^3H]glycerol, and the source of MGL enzyme is a homogenate of mouse brain from which the cerebellum and the medulla oblongata have been removed. The mouse brains are removed, and stored at −80° C. until they are used or homogenized immediately for twice 5 seconds using a Precellys apparatus at 5000 rpm (Bertin) in a 10 mM tris-HCl, 150 mM NaCl, 1 mM EDTA buffer (pH 8) at 4° C. The concentration of the homogenates is then adjusted to 7.5 μg/μl.
The dilution series of the compounds is prepared from stock solutions at 20 mM in 100% DMSO. […]
Assaying of the MGL activity is carried out in a 96-well microplate in a final reaction volume of 100 μl. […] After stirring for 10 minutes, the microplate is centrifuged for 15 minutes at 4000 g and a 30 μl aliquot of the aqueous phase containing the [^3H]glycerol produced is removed and then counted for 5 minutes by liquid scintillation (Wallac 1450 Microbeta).

Molecules are shown by their SMILES.

The text below walks through data of patent US7868007B2, “Triazolopyridine carboxamide derivatives, preparation thereof and therapeutic use thereof” (sanofi-aventis, priority 2007, dated 2011).

What is called melting point is the temperature of the solid-liquid transition. Take `O=C(N1CCN(C(c2ccccc2)c2ccccc2)CC1)n1nnc2ncc(Cl)cc21` [Compound 2, (4-Benzhydrylpiperazin-1-yl)(6-chloro[1,2,3]triazolo[4,5-b]pyridin-1-yl)methanone]: the melting point was 173 to 175 °C (dec.).

As for `O=C(N1CCN(C(c2ccccc2)c2ccccc2)CC1)n1nnc2ncccc21` [Compound 1, (4-Benzhydrylpiperazin-1-yl)[1,2,3]triazolo[4,5-b]pyridin-1-ylmethanone], the melting point is 146 to 148 °C (dec.). The IC50 in data set [1] amounted to 0.004 µM.

For the compound `O=C(N1CCN(C2c3ccccc3CCc3ccccc32)CC1)n1nnc2ncccc21` [Compound 7, [4-(10,11-Dihydro-5H-dibenzo[a,d]cyclohepten-5-yl)piperazin-1-yl][1,2,3]triazolo[4,5-b]-pyridin-1-ylmethanone], the melting point was 190 to 194 °C (dec.). In addition, in data set [1], the IC50 is 0.025 µM.

With `O=C(N1CCN(C(c2ccc(Cl)cc2)c2ccc(Cl)cc2)CC1)n1nnc2ncccc21` [Compound 4, {4-[Bis(4-chlorophenyl)methyl]piperazin-1-yl}[1,2,3]triazolo[4,5-b]pyridin-1-ylmethanone], the melting point is 163 to 165 °C (dec.).

`O=C(N1CCN(C(c2ccc(F)cc2)c2ccc(F)cc2)CC1)n1nnc2ncc(Cl)cc21` [Compound 5, {4-[Bis(4-fluorophenyl)methyl]piperazin-1-yl}(6-chloro[1,2,3]triazolo[4,5-b]pyridin-1-yl)-methanone]: the melting point is 167 to 169 °C (dec.).

For `O=C(N1CCN(C2c3ccccc3-c3ccccc32)CC1)n1nnc2ncccc21` [Compound 8, [4-(9H-Fluoren-9-yl)piperazin-1-yl][1,2,3]triazolo[4,5-b]pyridin-1-ylmethanone], the melting point was 170 to 172 °C (dec.).

Take `O=C(N1CCN(C(c2ccc(F)cc2)c2ccc(F)cc2)CC1)n1nnc2ncccc21` [Compound 3, {4-[Bis(4-fluorophenyl)methyl]piperazin-1-yl}[1,2,3]triazolo[4,5-b]pyridin-1-ylmethanone]: the melting point was 151 to 153 °C (dec.).
